This is an account of results in ChEMBL document CHEMBL3352783, “A highly water soluble benzimidazole derivative useful for the treatment of fasciolosis” (Bioorg Med Chem Lett, 2014).

Data set [1] concerns Fasciola hepatica. In words: Antiparasitic activity against Fasciola hepatica assessed as mortality at 50 mg/L after 48 hrs relative to untreated control. The data set is classed as functional.
The subject of data set [2] is Fasciola hepatica. The data set is described as follows: Antiparasitic activity against Fasciola hepatica infected in sheep assessed as fluke reduction at 12 mg/kg, po. The data set is classed as functional.
In data set [3] the test system is Fasciola hepatica. The data set is described as follows: Antiparasitic activity against Fasciola hepatica assessed as mortality at 50 mg/L after 24 hrs relative to untreated control. The data set is classed as functional.
For data set [4], the system named is Fasciola hepatica. In words: Antiparasitic activity against Fasciola hepatica infected in sheep assessed as fluke reduction at 4 mg/kg, intramuscular. The data set is classed as functional.
A short description of data set [5]: Aqueous stability of the compound assessed as time duration showing >95% compound stability at pH 7 and room temperature by UV-HPLC. The data set is classed as physicochemical. To be noted: buffer.
Data set [6] relates to Fasciola hepatica. The data set is described as follows: Antiparasitic activity against Fasciola hepatica infected in sheep assessed as fluke reduction at 4 mg/kg, sc. Type of data set: functional. To be noted: route subcutaneous.
In data set [7] the test system is Fasciola hepatica. The data set is described as follows: Antiparasitic activity against Fasciola hepatica assessed as mortality at 50 mg/L after 72 hrs relative to untreated control. Type of data set: functional.
Data set [8] has as its system Fasciola hepatica. The data set is described as follows: Antiparasitic activity against Fasciola hepatica infected in sheep assessed as reduction of eggs at 4 mg/kg, intramuscular. Type of data set: functional.
The subject of data set [9] is Fasciola hepatica. The data set is described as follows: Antiparasitic activity against Fasciola hepatica infected in sheep assessed as reduction of eggs at 12 mg/kg, po. The data set is classed as functional.
Data set [10] deals with Fasciola hepatica. The data set is described as follows: Antiparasitic activity against Fasciola hepatica assessed as mortality at 10 mg/L after 72 hrs relative to untreated control. Type of data set: functional.
Data set [11] has as its system Fasciola hepatica. In words: Antiparasitic activity against Fasciola hepatica assessed as mortality at 10 mg/L after 24 hrs relative to untreated control. The data set is classed as functional.
Data set [12] concerns Fasciola hepatica. The data set is described as follows: Antiparasitic activity against Fasciola hepatica assessed as mortality at 10 mg/L after 48 hrs relative to untreated control. Type of data set: functional.
Data set [13] has as its system Fasciola hepatica. In words: Antiparasitic activity against Fasciola hepatica infected in sheep assessed as reduction of eggs at 4 mg/kg, sc. The data set is classed as functional. To be noted: route subcutaneous.
In data set [14] the test system is Fasciola hepatica. In words: Antiparasitic activity against 10 week old Fasciola hepatica infected in sheep assessed as reduction in worm burden at 15 mg/kg, po. The data set is classed as functional.
A short description of data set [15]: Aqueous solubility of the compound at pH 7 and 25 degC. Type of data set: physicochemical.

Each structure is given as a SMILES string. Converted amounts (≈) assume the structure as drawn.

For the compound `CSc1nc2cc(Oc3cccc4ccccc34)c(Cl)cc2n1COP(=O)([O-])[O-].[Na+].[Na+]`, the Efficacy in the data set on Fasciola hepatica [1] turned out to be 100%; in the data set on Fasciola hepatica [2], 83.3%; in the data set with Fasciola hepatica [3], 100%; in the data set with Fasciola hepatica [4], 87.8%; with Fasciola hepatica [6], 61.4%; in the data set on Fasciola hepatica [7] it was 100%. Further, the Efficacy was found to be 44.9% in the data set on Fasciola hepatica [8]; 95.1% with Fasciola hepatica [9]; 100% in the data set on Fasciola hepatica [10]; 95.8% in the data set on Fasciola hepatica [11]; 95.8% with Fasciola hepatica [12]; 65.8% with Fasciola hepatica [13]. Moreover, the Stability in data set [5] is > 26 h.
On to `CSc1nc2cc(Oc3cccc4ccccc34)c(Cl)cc2[nH]1`, for which the Stability in [5] was > 26 h. In the data set on Fasciola hepatica [14], the Efficacy was 86.9%.
Broadly, the solubility is the dissolved amount per volume that the medium holds. Regarding `CSc1nc2cc(Cl)c(Oc3cccc(Cl)c3Cl)cc2[nH]1` [TRICLABENDAZOLE], the Efficacy in the data set with Fasciola hepatica [1], with Fasciola hepatica [3], in the data set with Fasciola hepatica [7], in the data set with Fasciola hepatica [10], in the data set with Fasciola hepatica [11] and in the data set on Fasciola hepatica [12] was 100% each time. Besides, the Stability in [5] was > 24 h. The solubility in data set [15] came out at 0.2 µg/mL (≈ 0.556 µM).
